Results taken from patent US20040053950A1, “Antimalarial activities and therapeutic properties of febrifugine analogues” (priority 2002, published 2004).
In brackets after ≈: the same amount, converted by molar mass. Where two headings read alike, the source gives them in different places.

Legend:
Plasmodium lophurae = conditions: duck models, purified febrifugine; cited from earlier work
[1] = tested on: P. falciparum chloroquine-resistant W2-strain; assay: In vitro drug susceptibility assay ([3H]-hypoxanthine incorporation), W2 strain; format: cell-based; conditions: Plasmodium falciparum
Experimental: (§1) Potential resistance to halofuginone derivatives of P. falciparum isolates were tested. Isolates of P. falciparum stored in liquid nitrogen are thawed and cultivated in RPMI 1640 media with 6% human erythrocytes supplemented with 10% of human serum. The parasite cultures are maintained in an atmosphere of 5% CO2, 5% O2 and 90% N2 at 37° C. for the assay. The semi-automated micro-dilution technique of Desjardins is used to assess the sensitivity of the parasites to febrifugine and halofuginone derivatives. The incorporation of [3H]-hypoxanthine into the parasites is measured as a function of compound concentration to determine EC50 values.

Macrophage cells (J774) = assay: In vitro drug toxicity assay, macrophage cells; format: cell-based; conditions: Mus musculus
malarial parasites = assay: In vitro antimalarial activity, parasites in culture (strain not stated); format: cell-based
Experimental: as §1

Neuronal cells (NG108) = assay: In vitro drug toxicity assay, neuronal cells; format: cell-based; conditions: NG-108
[2] = tested on: P. falciparum chloroquine-sensitive D6-strain; assay: In vitro drug susceptibility assay ([3H]-hypoxanthine incorporation), D6 strain; format: cell-based; conditions: Plasmodium falciparum
Experimental: as §1

Plasmodium berghei = assay: Modified Thompson test in P. berghei-infected mice; format: in vivo; conditions: for parasitemia of the infected mice: 10 mg/kg once/day for three days
Experimental: An active animal use protocol mouse models are used to test the above compounds to determine antimalarial activity by using modified Thompson Test. In this test, IRC mice are inoculated intraperitoneally with P. berghei-infected erythrocytes from donor mice that are anesthetized and exsanguinated via cardiac puncture to collect infected blood. The pooled blood is then diluted with normal mouse serum to a concentration of 1×10^6 P. berghei erythrocytes per inoculum (0.1 ml). The groups of testing and control mice are inoculated with the infected blood on day 0 and then treated with various dosages of halofuginone or the derivatives in aqueous-based vehicles on day 3 through the day required. The drug is administered orally (PO), subcutaneously (SC), intramuscularly (IM), and/or intraperitoneally (IP) up to three times a day, based on the requirements. Blood films and body weights are taken on the third and sixth days post-infection, then at weekly intervals through day 60. Films are Giemsa-stained, examined using light microscopy for the determination of parasitemia. All mice with negative smears at 60 days are considered cured. The data from the in vivo testing verifies the antimalarial efficacy of febrifugine, halofuginone and the halofuginone derivatives in mice and provides new properties of halofuginone and halofuginone derivatives against malarial parasites in vivo.
The modified Thompson test was conducted in eleven groups of mice with eight mice per group. The tested mice were inoculated with P. Berghei on day zero and treated with febrifugines on days three with one oral or subcutaneous treatment per day for three days. […] The parasitemia of the infected mice was reduced to less than 3% with oral administration of 10 mg/kg febrifugines one/day for three days, while mice with the subcutaneous treatment had 30% of parasitemia at the same does as shown in FIGS. 3(a) through 3(d).
Eighty-eight ICR mice were inoculated with P. berghei, and separated into nine groups. Eight of the infected groups were treated with […] different doses of halofuginone twice a day for eight days. One group was treated with physiological saline as control. […] Two mice were cured at the doses of 0.25 and 0.5 mg/kg and survived 60 days after the treatment. […] The parasites were all cleared at the does of 1 mg/kg on day six.

PfMRK = target: T1, PfMRK (Plasmodium falciparum, UniProt P90584); assay: Kinase assay, recombinant plasmodial cyclin-dependent kinase; format: biochemical
T1 sequence (P90584 1-324): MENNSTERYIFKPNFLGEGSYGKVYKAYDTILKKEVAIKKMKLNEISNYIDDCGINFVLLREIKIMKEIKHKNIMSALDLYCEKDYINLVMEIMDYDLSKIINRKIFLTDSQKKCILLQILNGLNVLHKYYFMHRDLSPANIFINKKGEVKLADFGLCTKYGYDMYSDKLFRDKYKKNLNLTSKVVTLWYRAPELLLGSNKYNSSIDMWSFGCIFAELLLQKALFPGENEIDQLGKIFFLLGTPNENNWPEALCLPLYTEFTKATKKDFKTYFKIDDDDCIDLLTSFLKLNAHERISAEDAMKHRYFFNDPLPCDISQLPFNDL
Description: Halofuginone is a known to be a specific collagen gene transcription inhibitor. However, inhibition to other target enzymes by febrifugine, halofuginone and halofuginone derivatives in malarial parasites remain unknown. Quinazoline analogues (the family to which these compounds belong) are known to target dihydrofolate reductase, mammalian EGFR kinase, the stress-activated protein kinase and cyclin dependent kinase. A series of enzymatic assays are used to detect whether the derivatives have inhibition against these enzymes. DHFR assay is conducted using a well-characterized spectrophotometric method. Kinase assays are conducted using radioisotope-labeling technique. The responses of the recombinant kinases to the derivatives are measured in a scintillation b-counter and illustrated using SDS-page gel and PhosphoImager. These tests provide information on the compounds' abilities to interfere with the functions of these enzymes and alter the parasite physiological pathways on a molecular basis.

[3] = Toxic effects in mice (observation and necropsy analysis); format: in vivo; conditions: for diarrhea / gastrointestinal toxic effects: mice
[4] = Table 4, W2, read-out: IC50 P. falciparum (W2)
[5] = Table 4, D6, read-out: IC50 P. falciparum (D6)
[6] = Table 1, W2 strain, read-out: IC50 against P. falciparum W2 strain
[7] = recombinant kinase, dash = no inhibition, read-out: PFMRK (IC50:μM)
[8] = Table 1, D6 strain, read-out: IC50 against P. falciparum D6 strain

Compound	IC50 [1, 4] [µg/mL]	IC50 [2, 5] [µg/mL]	IC50 [1, 6] [µg/mL]	IC50 [2, 8] [µg/mL]	IC50 (Macrophage cells (J774); Table 4, J774) [µg/mL]	IC50 (Neuronal cells (NG108); Table 4, NG108) [µg/mL]	IC50 (Macrophage cells (J774); Table 2, J774) [µg/mL]	IC50 (Neuronal cells (NG108); Table 2, NG108) [µg/mL]	other results
O=C(C[C@H]1NCCCC1O)Cn1cnc2ccccc2c1=O (stereo partly drawn) [Febrifugine, (2′S,3′R)-3-[3-(3-hydroxy-2-piperidyl)acetonyl]-4(3H)quinazolinone]					0.081 (≈ 0.269 µM)	0.0635 (≈ 0.211 µM)			antimalarial activity relative to quinine (Plasmodium lophurae): 100 times as active as quinine; IC50 ([1]; W2, read-out: IC50 P. falciparum (W2)): 0.00053 µg/mL (≈ 0.00176 µM); in vitro antimalarial activity relative to chloroquine and artemisinin (malarial parasites): ten times stronger than chloroquine and artemisinin; IC50 ([2]; D6, read-out: IC50 P. falciparum (D6)): 0.00034 µg/mL (≈ 0.00113 µM)
O=C(CC1NCCCC1O)Cn1cnc2cc(Br)c(Cl)cc2c1=O (stereo not shown) [Halofuginone]	0.00015 (≈ 0.000362 µM)	0.00012 (≈ 0.000289 µM)			0.132 (≈ 0.319 µM)	0.177 (≈ 0.427 µM)			lethal toxicity in infected mice (Plasmodium berghei; dose higher than 1 mg/kg twice a day): killed the tested mice before the parasites; mouse survival time (Plasmodium berghei; doses of 0.125, 0.25 and 0.5 mg/kg twice a day for eight days, ICR mice): extended the mouse survival time; parasitemia of the infected mice on day six (Plasmodium berghei; doses of 0.25 and 0.5 mg/kg twice a day): below 0.5%; mice cured (survived 60 days after the treatment) (Plasmodium berghei; doses of 0.25 and 0.5 mg/kg twice a day for eight days): Two; rank of in vitro potency against malarial parasites among febrifugine derivatives (malarial parasites): the most potent analog
COC1CCCN[C@@H]1CC(=O)Cn1cnc2cc3c(cc2c1=O)OCO3 (stereo partly shown) [WR090212]	0.0234 (≈ 0.0651 µM)	0.0189 (≈ 0.0527 µM)	0.0256 (≈ 0.0713 µM)	0.0181 (≈ 0.0504 µM)	2.97 (≈ 8.27 µM)	24.8 (≈ 69.1 µM)	3.54 (≈ 9.85 µM)	26 (≈ 72.3 µM)	
O=C(C[C@H]1NCCCC1O)Cn1cnc2cc3c(cc2c1=O)OCO3 (stereo partly shown) [WR092103]	0.00293 (≈ 0.00848 µM)	0.00238 (≈ 0.00689 µM)			3.61 (≈ 10.4 µM)	6.86 (≈ 19.9 µM)			
CCOC1CCCN[C@@H]1CC(=O)Cn1cnc2cc(Br)c(Cl)cc2c1=O (stereo partly shown) [WR221232]	0.0115 (≈ 0.0261 µM)	0.00945 (≈ 0.0213 µM)	0.0172 (≈ 0.0388 µM)	0.0111 (≈ 0.0251 µM)	0.613 (≈ 1.38 µM)	8 (≈ 18.1 µM)	0.287 (≈ 0.647 µM)	5.99 (≈ 13.5 µM)	IC50 (PfMRK): ~113 µM
O=C(C[C@H]1NCCCC1O)Cn1cnc2c(Cl)c(Cl)c(Cl)cc2c1=O (stereo partly shown) [WR222048]	0.00098 (≈ 0.00242 µM)	0.00082 (≈ 0.00203 µM)	0.00129 (≈ 0.00319 µM)	0.000962 (≈ 0.00238 µM)	0.499 (≈ 1.23 µM)	0.879 (≈ 2.17 µM)	0.11 (≈ 0.272 µM)	1.1 (≈ 2.71 µM)	
(2′S,3′R)-3-[3-(3-hydroxy-2-piperidyl)acetonyl]-4(3H)quinazolinone [Febrifugine]									efficacy of oral versus subcutaneous treatment (Plasmodium berghei; one treatment per day for three days, mice): more efficacious; parasitemia of the infected mice (Plasmodium berghei; oral administration, mice): less than 3%; parasitemia of the infected mice (Plasmodium berghei; subcutaneous treatment, mice): 30%; toxic effects (nausea and vomiting) in mice ([3]; antimalarial dosages): do not appear to have such toxic effects; diarrhea ([3]; effective treatment doses): did not induce diarrhea; gastrointestinal toxic effects ([3]; oral treatment, toxic doses): severe gastrointestinal lesions and hemorrhage; gastrointestinal toxic effects ([3]; subcutaneous treatment, toxic doses): did not induce GI tract injury; vomiting ([3]; tested mice): No vomiting has been observed; diarrhea ([3]; toxic doses): caused diarrhea; necropsy findings ([3]; toxic doses, mouse killed by drug): pale liver and intestine lesions and hemorrhage

More lines, main results first:

IC50 [1, 4] [µg/mL]	IC50 [2, 5] [µg/mL]	IC50 [1, 6] [µg/mL]	IC50 [2, 8] [µg/mL]	Compound	IC50 (Macrophage cells (J774); Table 4, J774) [µg/mL]	IC50 (Neuronal cells (NG108); Table 4, NG108) [µg/mL]	IC50 (Macrophage cells (J774); Table 2, J774) [µg/mL]	IC50 (Neuronal cells (NG108); Table 2, NG108) [µg/mL]	other results
0.0237 (≈ 0.083 µM)	0.0174 (≈ 0.0611 µM)	0.026 (≈ 0.0912 µM)	0.0171 (≈ 0.06 µM)	O=C(C[C@@H]1CCCCN1)Cn1cnc2ccccc2c1=O [WR059421]	0.492 (≈ 1.72 µM)	8.93 (≈ 31.3 µM)	0.236 (≈ 0.827 µM)	5.38 (≈ 18.9 µM)	IC50 (PfMRK; [7]): ~27 µM
0.284 (≈ 0.728 µM)	0.291 (≈ 0.748 µM)			O=C(C[C@H]1CCCCN1C(=O)c1ccccc1)Cn1cnc2ccccc2c1=O [WR059424]	3.01 (≈ 7.73 µM)	36.8 (≈ 94.5 µM)			
0.245 (≈ 0.593 µM)	0.193 (≈ 0.466 µM)	0.288 (≈ 0.696 µM)	0.203 (≈ 0.491 µM)	C=CCOC(=O)N1CCCC(OCC)[C@H]1CC(=O)Cn1cnc2ccccc2c1=O (stereo partly shown) [WR088442]	7.09 (≈ 17.1 µM)	35.1 (≈ 84.8 µM)	9.1 (≈ 22 µM)	21.5 (≈ 52 µM)	IC50 (PfMRK; [7]): ~25 µM
0.129 (≈ 0.292 µM)	0.0897 (≈ 0.202 µM)	0.129 (≈ 0.292 µM)	0.0897 (≈ 0.202 µM)	C=CCOC(=O)N1CCCC(OC)[C@H]1CC(=O)Cn1cnc2cc3c(cc2c1=O)OCO3 (stereo partly shown) [WR089904]	1.08 (≈ 2.43 µM)	53.3 (≈ 120 µM)	29.2 (≈ 65.7 µM)	63 (≈ 142 µM)	
0.00146 (≈ 0.00435 µM)	0.00175 (≈ 0.00521 µM)	0.00163 (≈ 0.00484 µM)	0.00123 (≈ 0.00366 µM)	O=C(C[C@H]1NCCCC1O)Cn1cnc2cccc(Cl)c2c1=O (stereo partly shown) [WR139672]	0.392 (≈ 1.17 µM)	1.16 (≈ 3.45 µM)	0.069 (≈ 0.205 µM)	1.31 (≈ 3.91 µM)	
0.0151 (≈ 0.0419 µM)	0.0129 (≈ 0.036 µM)	0.0141 (≈ 0.0391 µM)	0.0105 (≈ 0.0291 µM)	COC1CCCN[C@@H]1CC(=O)Cn1cnc2ccc3c(c2c1=O)OCO3 (stereo partly shown) [WR140085]	0.425 (≈ 1.18 µM)	15.5 (≈ 43.1 µM)	3.29 (≈ 9.14 µM)	10.8 (≈ 30.1 µM)	
